Results as given in patent US20150329864A1, “DESIGN OF OLIGONUCLEOTIDE ANALOGS AS THERAPEUTIC AGENTS” (SPRING BANK PHARMACEUTICALS, INC., priority 2010, published 2015).

Legend:
PBMCs = format: cell-based
EEEH protein = test: EEEH expression in woodchucks after sublingual administration; format: in vivo; details: following absorption by the sublingual route
Method: Compound 5 was administered by sublingual route to woodchucks, at a dose of […] in Transcutol, and blood was drawn periodically for analysis. Test results are provided in Tables 4 and 5 and FIG. 3 and FIG. 4.

NOD2 = test: IRF3 induction in HEK cells with or without transfected NOD2; format: cell-based
[1] = Weight change and apparent toxicity in orally treated HBV transgenic mice; format: in vivo
Method: (§1) Compound 6k was evaluated for anti-HBV activity in the transgenic mouse model of HBV infection. Male transgenic mouse infected with HBV, with age ranging from 78 to 108 days were used. Compound 6k was initially evaluated at a single dose of 300 mg/kg, administered daily for 14 days by oral gavage. The compounds were administered in citric acid and adefovir dipivoxil was used as a positive control. A control group which received vehicle was used a negative control. Following the treatment, mice were sacrificed and liver tissue analyzed for HBV DNA using Southern blot analysis. The data was statistically evaluated using Kruskall-Wallis non-parametric ANOVA.
(§2) (a) Male and female transgenic mice (founder 1.3.32) were infected with human hepatitis B virus. Following infection, animals were orally administered Compound 6k, or a placebo of 0.05 M citric acid, pH 2.0 once daily for 14 days. Dosage was 300 mg/kg/d for Compound 6k. The positive control, ADV, was administered at 10 mg/kg/d.
Statistical significance is indicated as *P≦0.05, **P≦0.01, ***P≦0.001 compared to placebo vehicle.

HBV-3TC-R4 LMMV = format: cell-based; details: Hepatitis B virus
HBV WT = test: HepG2.2.15 cell-based HBV assay, wild type; details: Hepatitis B virus
Method: Selected compounds were evaluated in in vitro cell-based HepG2.2.15 HBV assay.
Antiviral analysis. For the antiviral analyses, confluent cultures of 2.2.1.5 cells were maintained on 96-well flat-bottomed tissue culture plates in RPMI1640 medium with 2% fetal bovine serum. Cultures (6 per each test concentration on two replicate plates) were treated with 9 consecutive daily doses of the test compounds. Medium was changed daily with fresh test compounds. HBV nucleic acid and protein levels were measured 24 hours after the last treatment. Extracellular (virion) HBV DNA levels were assessed by quantitative blot hybridization. Intracellular HBV DNA levels were measured by quantitative Southern blot hybridization.
The uptake of neutral red dye was used to determine the relative level of toxicity 24 hours following the last treatment. The absorbance of internalized dye at […] (A510) was used for the semi-quantitative analysis. Values are presented as a percentage of the average A510 values (±standard deviations) in 9 separate cultures of untreated cells maintained on the 96-well plates seeded at the same time with the identical pool of stock cells used for the antiviral analyses and maintained in an identical manner. A total of 3 cultures were treated with each concentration of the test compound.

[2] = Cytotoxicity by neutral red dye uptake in HCV replicon cultures; format: cell-based; details: human, AVA5 HCV replicon cell line (sub-genomic CON1, genotype 1b); parallel plates, 3-day assay; read-out: CC50, neutral red dye uptake
Method: Antiviral activity against HCV was assessed in a 3-day assay (Okuse, et al., 2005; Antiviral. Res. 65:23; Korba, et al., 2008, Antiviral Res. 77:56) using the stably-expressing HCV replicon cell line, AVA5 (sub-genomic (CON1), genotype 1b) (Blight, et al., 2000; Science 290:1972) maintained as sub-confluent cultures on 96-well plates. Antiviral activity was determined by blot hybridization analysis of intracellular HCV RNA (normalized to the level of cellular B-actin RNA in each culture sample). Cytotoxicity was assessed by neutral red dye uptake in cultures maintained in parallel plates.
EC50, EC90, and CC50 values were calculated by linear regression analysis (MS EXCEL®, QuattroPro®) using data combined from all treated cultures Korba & Gerin, 1992, Antivir. Res. 19:55; Okuse, et al., 2005, Antivir. Res. 65:23). […]
Combination treatments are conducted as previously described. Briefly, two agents were mixed together at a pre-determined concentration ratio. […] Analysis of drug interactions in the combination studies was determined by the use of the CALCUSYN program (Biosoft, Inc., Cambridge, United Kingdom). […]

HCV = test: Combination studies against HCV in replicon assays; format: cell-based; details: Hepatitis C virus, read-out: EC50 (uM), single drug
human hepatitis B virus = test: Anti-HBV activity in the HBV transgenic mouse model, oral administration; format: in vivo, transgenic mice; details: for Liver HBV DNA Southern blot (pg/μg mean ± sd): p.o.
Method: as §1, §2
as §2, with “Male” for “(a) Male”, “add,” for “acid,”, “Dosages were 100, 10.5 and 1” for “Dosage was 300”, “6K.” for “6k.”

[3] = 300 mg/kg/d, oral, once daily 14 days

## CO[C@H]1C(OP(=O)(S)OC[C@H]2O[C@@H](n3cnc4c(N)ncnc43)CC2O)[C@@H](CO)O[C@H]1n1ccc(=O)[nH]c1=O (stereo partly drawn) [Compound 5, 3-dApsU2′-OMe]
PBMCs
  induction of IFN: induction of IFN beta
EEEH protein
  kinetics of induction of the EEEH protein: very rapid
NOD2; HEK cells transfected with NOD2
  induction of IRF3: cause induction of IRF3
NOD2; NOD2 deficient HEK cells
  induction of IRF3: failed to induce IRF3

## CO[C@H]1C(OP(=O)(OC[C@H]2O[C@@H](n3cnc4c(N)ncnc43)CC2O)SCOC(=O)OC(C)C)[C@@H](CO)O[C@H]1n1ccc(=O)[nH]c1=O (stereo partly drawn) [Compound 6k]
[1]; [3]
  % weight change ± sd: 4.3 ± 1.8%
[1]; high doses employed, oral once daily 14 days
  apparent toxicity: no apparent toxicity
HBV-3TC-R4 LMMV
  EC50: 3.1 µM
  EC90: 9.3 µM
HBV WT
  EC50: 2.5 µM
  EC90: 8.5 µM
[2]
  CC50 at 3 day: > 100 µM
HCV
  EC50: 1.5 to 2.3 µM
Human hepatitis B virus; 1 mg/kg/d, qd × 14 d
  Liver HBV DNA Southern blot (pg/μg mean ± sd): 16.4 ± 14.7 (6) pg/μg
Human hepatitis B virus; 10 mg/kg/d, qd × 14 d (Table 2)
  Liver HBV DNA Southern blot (pg/μg mean ± sd): 3.4 ± 4.4 (7) pg/μg
Human hepatitis B virus; 100 mg/kg/d, qd × 14 d
  Liver HBV DNA Southern blot (pg/μg mean ± sd): 7.2 ± 8.9 (6) pg/μg
Human hepatitis B virus; 300 mg/kg daily for 14 days by oral gavage
  reduction of liver HBV DNA compared to untreated control: up to 2 log
Human hepatitis B virus; [3]
  Liver HBV RNA (log transcripts ± sd): 10.8 ± 0.4 log transcripts
  QPCR Liver HBV DNA (pg/μg mean ± sd): 13.3 ± 12 pg/µg
Human hepatitis B virus; 300 mg/kg/d, oral, once daily 14 days (Table 1)
  Southern blot Liver HBV DNA (pg/μg mean ± sd): 5.7 ± 3.2 pg/µg
Human hepatitis B virus; 300 mg/kg/d, qd × 14 d (Table 2)
  Liver HBV DNA Southern blot (pg/μg mean ± sd): 4.8 ± 4.4 (2) pg/μg
Human hepatitis B virus; oral
  EC50 when administered orally to a hepatitis B transgenic mouse model: approximately 10 mg/kg
